According to a melting point compilation (Tetko et al.; mined from patent text by program, amines drawn as free bases though some values may be those of a salt):

| SMILES | melting point [°C] |
| --- | --- |
| COc1cc(C(=O)O)ccc1Cn1cc(CCC(=O)N(C)C)c2ccc(CCC(=O)N(C)C)cc21 | 216 to 218 |
| COC(=O)[C@H](CC(C)C)NC(=O)[C@H](NC(=O)OCc1ccccc1)C(C)C | 112 to 114 |
| Cn1ccc2c1CCn1ncnc1C2=C1CCNCC1 | 183 |
| COc1cc(Cc2ccc3nc(N)nc(N)c3c2)cc(OC)c1 | 230 to 232 |
| O=C(Nc1ccc2nc(CN3CCCC3)ccc2c1)c1ccc(-c2ccc(Cl)cc2)nc1 | 225 to 227 |
| Clc1cc2nc(-c3ccncc3)[nH]c2cc1Cl | 297 |
| COc1ccc2c(c1OC)C(=O)O[C@@H]2[C@H]1c2c(c(N=[N+]=[N-])c3c(c2OC)OCO3)CCN1C | 177 to 178 |
| FC(F)(F)c1cc(-c2ncn(CCCN3CCOCC3)c2-c2ccncc2)cc(C(F)(F)F)c1 | 136 to 138 |
| CCc1ccccc1NS(=O)(=O)c1cc(S(=O)(=O)Nc2ccccc2CC)c2cc(O)ccc2c1 | 127 to 129 |
| CCCCCCCCCCCC(=O)NCCCSc1ccncc1 | 71 to 72 |
| CCCOc1cc(C(=O)O)ccc1-c1ccc(-c2ccccc2)c(-c2ccc3c(c2)C(C)(C)CCC3(C)C)c1 | 216 to 218 |
| CNc1c(F)c(C)c2c(=O)c(C(=O)O)cn(-c3cc(N)c(F)cc3F)c2c1C | 247 to 253 |
| OCCCc1ccncc1O | 123 to 126 |
| Cc1c(Nc2c(C#N)cncc2-c2cc3cc(C=O)ccc3o2)ccc2[nH]ccc12 | 235 to 237 |
| CCc1nc2cnc3cc(O)ccc3c2n1CC(C)C | > 250 |
| Brc1cc(Br)c(CSCc2cc(Br)c(Br)cc2Br)cc1Br | 173 to 175 |
| ClCc1cccc(CCl)n1 | 74.5 to 75.5 |
| CC(=O)C(O)C1OC(S(=O)(=O)c2ncc(Cl)cn2)C(O)(C(C)=O)C(O)(C(C)=O)C1(O)C(C)=O (centres undefined) | 180 |
| CCOc1ccc(S(=O)(=O)N(Cc2ccc(C#N)cc2)[C@@H](CC)c2ccccc2)cc1 | 97 to 98 |
| O=C1c2ccc(SCc3ccccc3)cc2C(=O)c2cc3ccccc3cc21 | 200 to 203 |
| N#CNC(=Nc1ccncc1)NCCOc1ccc(Cl)cc1 | 174 to 177 |

Next, values leading:

| melting point [°C] | SMILES |
| --- | --- |
| 170 to 171 | CC(C)(C)OC(=O)NCCNC(=O)c1nocc1-c1ccccc1 |
| 133 to 135 | O=C1CCC(N2C(=O)c3ccc(CNCc4cc5ccccc5o4)cc3C2=O)C(=O)N1 (centres undefined) |
| 108 to 110 | O=C(NCC12CC3CC(CC(C3)C1)C2)c1cccnc1Sc1cc(O)ccc1O |
| 192 to 194 | CC(C)c1cc(O)cc2cc(-c3ccc(O)cc3)oc12 |
| 115 to 119 | CC(N)=Nc1ccc(Cl)cc1Cc1ccccc1F |
| 124 to 125 | CCOC(=O)CN(c1cccc2cc(-c3nccs3)n(COC)c12)S(=O)(=O)c1cccs1 |
| 210 to 213 | CC(=O)Oc1ccc2nc(NC(=O)Nc3ccccc3)sc2c1 |
| 75.4 | OCc1nccn1CCc1ccccc1 |
| 130 to 135 | NCC(=O)c1cccc2c(S(=O)(=O)n3c(CCC(=O)O)cc4cc(Cl)ccc43)cccc12 |
| 54 to 56 | CC(Br)C(=O)NC1=NN(c2cccc(C(F)(F)F)c2)CC1 (centres undefined) |
| 183 to 185 | Cc1ccc([C@H]2O[C@@H]2C(N)=O)cc1 |
| 203 to 204 | Cn1c(=O)n(CC2(C)Cn3cc([N+](=O)[O-])nc3O2)c2ccccc21 (centres undefined) |
| 115 to 116 | COc1ccccc1CCC(C)(O)CC1CCCCN1 (centres undefined) |
| 161 | CC1C(C)(C)c2ccc(C(=O)CCC(=O)O)cc2C1(C)C (centres undefined) |
| 239 to 240 | O=C(O)c1ccc(-c2nnn[nH]2)cc1Sc1ccccc1 |
| 272 to 273 | O=C(c1ccc(Cl)cc1)[C@H]1C[C@H]1C(=O)N1CCC(N2Cc3ccccc3NC2=O)CC1 (relative stereo) |
| 82 to 83 | CN(C)CCCOc1ccc(C(=O)NN)nc1 |
| 133 to 134 | COC(=O)[C@@H]1Cc2ccccc2N1c1ccc(Cl)nn1 |
